Assay [1] has as its target T1, soybean lipoxygenase (LOX) (Glycine max, UniProt P08170).
T1 construct: purchased Sigma-Aldrich
T1 sequence (P08170 1-839): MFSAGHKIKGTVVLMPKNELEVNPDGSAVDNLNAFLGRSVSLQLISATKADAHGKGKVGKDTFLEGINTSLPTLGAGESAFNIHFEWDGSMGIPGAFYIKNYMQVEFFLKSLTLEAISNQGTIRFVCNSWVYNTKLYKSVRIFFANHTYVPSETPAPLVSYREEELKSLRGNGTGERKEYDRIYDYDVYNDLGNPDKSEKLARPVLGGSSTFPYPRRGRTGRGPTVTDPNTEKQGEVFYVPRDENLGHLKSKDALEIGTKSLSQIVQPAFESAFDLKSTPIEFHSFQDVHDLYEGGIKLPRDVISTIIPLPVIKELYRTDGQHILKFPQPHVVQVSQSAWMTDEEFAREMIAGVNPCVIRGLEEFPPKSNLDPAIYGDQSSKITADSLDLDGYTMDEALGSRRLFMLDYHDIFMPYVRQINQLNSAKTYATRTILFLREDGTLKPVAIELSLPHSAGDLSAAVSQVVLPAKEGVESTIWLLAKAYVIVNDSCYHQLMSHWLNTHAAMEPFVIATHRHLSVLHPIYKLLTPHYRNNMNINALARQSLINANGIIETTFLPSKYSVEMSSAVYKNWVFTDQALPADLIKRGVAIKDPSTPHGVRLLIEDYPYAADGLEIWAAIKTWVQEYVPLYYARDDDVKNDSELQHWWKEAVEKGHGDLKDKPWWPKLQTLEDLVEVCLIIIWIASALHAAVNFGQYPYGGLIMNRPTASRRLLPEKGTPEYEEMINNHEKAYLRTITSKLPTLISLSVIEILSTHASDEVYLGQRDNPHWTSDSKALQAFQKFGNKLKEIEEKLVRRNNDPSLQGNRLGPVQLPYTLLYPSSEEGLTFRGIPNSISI
The assay can be described thus: In vitro soybean lipoxygenase (LOX) inhibition. It is filed as biochemical. Conditions: sodium linoleate 0.1 mM, read-out: LOX inhibition (IC50 μM) ± SD. The method, then: In vitro LOX inhibition assay was accomplished as described previously. Test compounds (stock solutions 10 mM in DMSO) were incubated at room temperature with sodium linoleate (0.1 mM) and 0.2 ml of LOX solution (0.1 mg in 10 ml saline). Conversion of sodium linoleate to 13-hydroperoxylinoleic acid was measured at 234 nm and compared to the reference inhibitor. Several concentrations were used for IC50 determination.

Assay [2] has as its system Staphylococcus aureus ATCC 6538. Description: MIC determination (broth micro-dilution). Type of assay: cell-based. The conditions noted are these: ATCC6538. The procedure:
(§1) Before analysis, compounds 5a–f were dissolved in 96% ethanol in a concentration of 2 mg/ml as stock solutions. Inoculums were prepared with fresh cultures of microbial strains, cultured on tryptic-soy agar or Sabouraud 2% (m/v) dextrose agar for 18 h (48–72 h for fungi) at 30 °C with physiological saline containing approximately […]. Inoculum density (0.5 McFarland units) was adjusted with a bio Mériex (France) densitometer. Minimum inhibitory concentration (MIC) was determined by the twofold micro-dilution method in Mu¨ller–Hinton broth for bacterial strains and RPMI 1640 + 2% m/v dextrose for fungi according to the EUCAST recommendations in a sterile 96-well flat-bottom plastic tissue culture plate. MIC was determined using a linear regression curve after incubation of compounds and reading the optical density at 570 nm using an iEMS microplate reader. […] All tests were performed in triplicate and expressed as the mean.

The subject of assay [3] is Enterococcus faecalis ATCC 29212. The assay can be described thus: MIC determination (broth micro-dilution). It is filed as cell-based. Conditions: ATCC29212. The procedure: as §1
On the technique in general: Dilution methods test growth across graded concentrations, often in twofold steps.

Assay [4] concerns Staphylococcus aureus ATCC 25923. The assay can be described thus: MIC determination (broth micro-dilution). It is filed as cell-based. Conditions: ATCC25923. The procedure:
as §1

Assay [5] relates to Candida albicans ATCC 90028. Description: MIC determination (broth micro-dilution). It is filed as cell-based. The conditions noted are these: ATCC90028. The procedure: as §1
The subject of assay [6] is Enterococcus hyrae ATCC 8043. Description: MIC determination (broth micro-dilution). Type of assay: cell-based. Conditions: ATCC8043. The method, then: as §1
Assay [7] concerns Candida albicans ATCC 10231. Description: MIC determination (broth micro-dilution). Conditions: ATCC10231. It is filed as cell-based. The procedure:
as §1

The subject of assay [8] is Escherichia coli ATCC 8739. Description: MIC determination (broth micro-dilution). It is filed as cell-based. The conditions noted are these: ATCC8739. The procedure:
as §1

Assay [9] has as its system Pseudomonas aeruginosa ATCC 9027. Description: MIC determination (broth micro-dilution). Type of assay: cell-based. The conditions noted are these: ATCC9027. The method, then: as §1
Assay [10] concerns Candida krusei ATCC 14243. The assay can be described thus: MIC determination (broth micro-dilution). Conditions: Pichia kudriavzevii, ATCC14243. Type of assay: cell-based. The procedure:
as §1

Assay [11] relates to Burkholderia caepacia ATCC 25416. The assay can be described thus: MIC determination (broth micro-dilution). Type of assay: cell-based. The conditions noted are these: ATCC25416. The procedure: as §1
Assay [12] has as its system Candida parapsylosis ATCC 22019. Description: MIC determination (broth micro-dilution). Type of assay: cell-based. The conditions noted are these: ATCC22019. The procedure: as §1
Assay [13] concerns Candida tropicalis ATCC 750. Description: MIC determination (broth micro-dilution). Type of assay: cell-based. Conditions: ATCC750. The method, then: as §1
The test system of assay [14] is Bacillus subtilis ATCC 6633. Description: MIC determination (broth micro-dilution). The conditions noted are these: ATCC6633. Type of assay: cell-based. The method, then:
as §1

Assay [15] concerns Kocuria rhizophila ATCC 9341. The assay can be described thus: MIC determination (broth micro-dilution). Type of assay: cell-based. The conditions noted are these: ATCC9341. The method, then:
as §1

The subject of assay [16] is Escherichia coli ATCC 10536. The assay can be described thus: MIC determination (broth micro-dilution). Type of assay: cell-based. The conditions noted are these: ATCC10536. The method, then: as §1
Assay [17] concerns Issatchenkia orientalis Kudrjanzev ATCC 6258. Description: MIC determination (broth micro-dilution). It is filed as cell-based. The conditions noted are these: Pichia kudriavzevii, ATCC6258. The procedure:
as §1

The test system of assay [18] is Staphylococcus aureus ATCC 25213. The assay can be described thus: MIC determination (broth micro-dilution). It is filed as cell-based. Conditions: ATCC25213. The procedure: as §1
Assay [19] has as its system Aspergillus niger ATCC 16404. The assay can be described thus: MIC determination (broth micro-dilution). Type of assay: cell-based. The conditions noted are these: ATCC16404. The method, then:
as §1

Assay [20] deals with Bacillus cereus ATCC 11778. The assay can be described thus: MIC determination (broth micro-dilution). It is filed as cell-based. The conditions noted are these: ATCC11778. The procedure: as §1
Assay [21] concerns Pseudomonas aeruginosa ATCC 27853. The assay can be described thus: MIC determination (broth micro-dilution). It is filed as cell-based. Conditions: ATCC27853. The procedure:
as §1

A further assay deals with Candida kefyr ATCC 2512. The assay can be described thus: MIC determination (broth micro-dilution). Type of assay: cell-based. Conditions: Kluyveromyces marxianus, ATCC2512. The procedure: as §1

≈ marks a conversion by molar mass, not a printed value.

In general, IC50 refers to the concentration at which inhibition is half-maximal. By MIC is commonly meant the lowest concentration that inhibits growth of the organism. A higher MIC goes with a need for much substance. Take `COc1cc(NC(C)CCCNC(=O)NC(C(=O)N(C)C(c2ccccc2)c2ccccc2)c2ccccc2)c2ncccc2c1` (centres unmarked) [Compound 5b, N-(diphenylmethyl)-2-[({4-[(6-methoxyquinolin-8-yl)amino]pentyl}carbamoyl)amino]-N-methyl-2-phenylacetamide]: the IC50 in assay [1] is 69 ± 2 µM. Besides, the MIC in assay [2] was > 100 µg/mL; in assay [3], > 100 µg/mL; in [4], 65 µg/mL (≈ 106 µM); in assay [5], > 100 µg/mL; in assay [6] it was > 100 µg/mL; in assay [7], > 100 µg/mL. For the same compound, the minimal inhibitory concentration (MIC) in [8], in [9], in assay [10], in [11], in [12] and in assay [13] was > 100 µg/mL each time. Also, the MIC was > 100 µg/mL in [14]; > 100 µg/mL in assay [15]; > 100 µg/mL in assay [16]; > 100 µg/mL in assay [17]; 60 µg/mL (≈ 97.4 µM) in [18]; > 100 µg/mL in assay [19]. For the same compound, the MIC (in assay [20]; in assay [21]; in the assay with Candida kefyr ATCC 2512) was > 100 µg/mL throughout.

Turning to `COc1cc(NC(C)CCCNC(=O)NC(C(=O)NC(c2ccccc2)c2ccccc2)c2ccc(Cl)cc2)c2ncccc2c1` (centres unmarked) [Compound 5d, 2–(4-chlorophenyl)-N-(diphenylmethyl)-2-[({4-[(6-methoxyquinolin-8-yl)amino]pentyl}carbamoyl)amino]acetamide], in assay [1], the IC50 was 41.5 ± 3.1 µM. The MIC in assay [2] is 25 µg/mL (≈ 39.3 µM); in assay [3] it was > 100 µg/mL; in assay [4], 25 µg/mL (≈ 39.3 µM); in assay [5], > 100 µg/mL; in [6] it was > 100 µg/mL; in assay [7], > 100 µg/mL. Also, the MIC was 65 µg/mL (≈ 102 µM) in assay [8]; 65 µg/mL (≈ 102 µM) in assay [9]; > 100 µg/mL in assay [10]; > 100 µg/mL in assay [11]; > 100 µg/mL in assay [12]; > 100 µg/mL in [13]. The MIC in [14] was 65 µg/mL (≈ 102 µM); in assay [15], > 100 µg/mL; in assay [16], 60 µg/mL (≈ 94.3 µM); in assay [17], > 100 µg/mL; in assay [18] it was 12.5 µg/mL (≈ 19.6 µM); in assay [19], > 100 µg/mL. Also, the MIC in assay [20] is 50 µg/mL (≈ 78.6 µM); in assay [21] it was 50 µg/mL (≈ 78.6 µM); with Candida kefyr ATCC 2512 it was > 100 µg/mL.

The values are drawn from PMC6021035, “Insights into biological activity of ureidoamides with primaquine and amino acid moieties” (Journal of Enzyme Inhibition and Medicinal Chemistry, 2018).
